The test system of data set [1] is seventeen (17) days-old chick embryo calvaria. Nature of the data set: bone resorption in vitro induced by parathyroid hormone (PTH). Format: cell-based. Particulars: Gallus gallus; for inhibition at 100 µM: compound 10^-4 M; for inhibition at 10 µM: compound 10^-5 M; for inhibition at 1 µM: compound 10^-6 M. On the procedure:
In order to determine the effectiveness of Formula I compounds in the treatment and/or prevention of osteoporosis in mammalian species an in vitro experimental procedure was utilized to measure bone resorption. The procedure utilized was as follows.
Bone resorption in vitro was measured essentially as outlined by Hall and Kenny (Pharmacology 30:339-347, 1985), except however, seventeen (17) days-old chick embryo calvaria were utilized instead of mice calvaria. Resorption is defined as the amount of calcium (mg/ml) in the medium of vehicle-treated cultures. The effects of the Formula I test compounds were determined by monitoring the effect on calcium concentrations in presence of drug relative to control calcium concentrations at a particular PTH (parathyroid hormone) concentration. The % inhibition of resorption induced by parathyroid hormone by Formula I compounds was calculated as follows: [formula] where Ca (PTH)=Ca (PTH)-Ca (Vehicle medium), and
Ca (PTH+Formula I compound)=Ca (PTH+Formula I compound)

Data set [2] concerns adjuvant-induced arthritis test model in rats. Nature of the data set: adjuvant-induced arthritis test model in rats. Format: in vivo, rat (adult, female Lewis). The protocol:
The test utilized to evidence antiarthritic properties of the compounds of Formula I is an adjuvant-induced arthritis test model in rats. Adjuvant arthritis was induced in adult, female Lewis rats as described by Walz et al. J. Pharmac. Exp. Ther. 178:223-231 (1971). Briefly, arthritis was induced in the rats by injection of 0.05 ml of a 1.5% suspension of killed Mycobacterium Butyricum into the right rear foot pad of each rat. Eighteen days later, those rats having a left hind paw volume (measured by mercury displacement up to a reference tatoo mark placed on the leg on Day 0) of 2.4 ml or greater were randomly assigned to treatment groups. The test, reference and control articles (as solutions or suspensions in 0.5% Tween 80) were given by gavage, beginning on Day 18 after adjuvant administration and for 5 days a week (Monday through Friday) through Day 49. Paw volumes were recorded on days 18, 29 and 50 after adjuvant injection. On Day 50, the rats were killed (carbon dioxide) and the uninjected hind limb was x-rayed and scored for bone damage on an arbitrary 1 (no damage) to 10 (maximum damage) scale.
Data collected for hind paw volumes and bone damage were analyzed by the Dunnett's t-test [Dunnett, C. W., J. Amer. Stat. Assoc., 50:1096-1121 (1955)], comparing a positive control group with several treated groups.

Data set [3] in a line: hygroscopicity observation. Format: physicochemical. Particulars: white crystals.

`COc1ccccc1OCC(COS(N)(=O)=O)OS(N)(=O)=O` (centres unmarked) [Example 3, 1-[(2-Methoxyphenoxy)methyl]-1,2-ethanediol bisulfamate (ester)]: the inhibition at 100 µM was found to be 10% in data set [1] (PTH 10^-7 M), 40.5% in data set [1] (PTH 10^-8 M), 66.5% in data set [1] (PTH 10^-9 M) and 100% in data set [1] (PTH 10^-10 M). In addition, the inhibition at 10 µM in data set [1] (PTH 10^-7 M) was 21%; in data set [1] (PTH 10^-8 M), 37%; in data set [1] (PTH 10^-9 M), 86%; in data set [1] (PTH 10^-10 M), 100%. For the same compound, the inhibition at 1 µM came to 21% in data set [1] (PTH 10^-7 M), 29% in data set [1] (PTH 10^-8 M), 100% in data set [1] (PTH 10^-9 M) and 100% in data set [1] (PTH 10^-10 M). Also, the inhibition at 0.1 µM in data set [1] (compound 10^-7 M, PTH 10^-8 M) came out at 23%. Also, in data set [2] (1 mg/kg to 100 mg/kg by gavage, Dunnett's t-test), the “reduction in paw edema, significance” value is listed as “significant”. In data set [2] (1 (no damage) to 10 (maximum damage) scale, x-ray of uninjected hind limb, Day 50, dosage range 1 mg/kg to 100 mg/kg by gavage, controls scored 8 to 9), the bone damage score is on record as 5.4-5.9. Besides, the “reduction in bone damage, significance” value in data set [2] (vs. controls, 1 mg/kg to 100 mg/kg by gavage, Dunnett's t-test) was “significant”.

With `NS(=O)(=O)OCCN1CCCC1=O` [Example 63, 1-[2-[(Aminosulfonyl)oxy]ethyl]-2-pyrrolidinone], in data set [3], the hygroscopicity result is recorded as “slightly hygroscopic”.

The inhibition is the change of the read-out against control, counted positive when it falls. Read a low inhibition as a response near the control.

These data come from US5194446A, “Compounds having one or more aminosulfaonyloxy radicals useful as pharmaceuticals” (A. H. Robins Company, Incorporated, priority 1991, dated 1993).
